One data set has as its target T1, NR1/NR2B receptor (Rattus norvegicus, UniProt P35439+Q00960).
T1 construct: from tissue; host or cells: rat cerebral cortex membranes (male Slc: Wistar rat)
Nature of the data set: Test of binding with NMDA receptor (NR1/NR2B receptor): competition with [3H]-Ifenprodil on rat cerebral cortex membrane specimen. Here is the method: Test of Binding with NMDR Receptor (NR1/NR2B Receptor)
Using Ifenprodil which is an antagonist specific for a NR1/NR2B subtype receptor as a ligand, an experiment of competition between a receptor and a test compound was performed.
Using a male Slc: Wistar rat as an animal, a brain was isolated after decapitation, and a cerebral cortex was fractionated. The cerebral cortex was homogenized with a 20-fold amount of an ice-cooled 50 mM Tris/HCl buffer (pH 7.4), and the homogenate was centrifuged at 4° C. and 27,500×g for 10 minutes. The resulting precipitate was suspended in the same buffer, and this was again centrifuged. This operation was repeated for three times, the resulting precipitate was suspended in a buffer, and this was stored at −80° C. Immediately before an experiment, the frozen suspension was thawed at room temperature, this was centrifuged at 4° C. and 27,500×g for 10 minutes, and the resulting precipitate was suspended in a buffer. Further, the suspension was diluted 10-fold with a buffer, and this was used as a membrane specimen in an experiment. In a binding experiment, to 470 μl of the membrane specimen were added […] of each of test compounds having different concentrations, 10 μl of a labeled ligand [^3H]-Ifenprodil and 10 μl GBR-12909, followed by incubation at an ice temperature for 120 minutes. A concentration of [^3H]-Ifenprodil of the labeled ligand was finally 5 nM, and a concentration of GBR-12909 was finally 3 μM. For measuring a total binding amount, DMSO as a solvent was used and, for measuring a non-specific binding amount, 100 μM Ifenprodil was used. GBR-12909 was added in order to block binding of [^3H]-Ifenprodil to non-polyamine-sensitive site. After incubation, a bound formand a free foramwere separated using Whatman GF/C filter (manufactured by Whatman), and the filter was washed with 2.5 ml ice-cooled buffer four times. The filter was immersed in liquid scintillation (Cryasol I, manufactured by Nacalai tesque), and radioactivity (dpm) was measured with a liquid scintillation counter. From a measured value, a binding inhibition rate (%) was obtained by the following equation, and a dose at which binding is inhibited 50% (IC50) was calculated. A formula of GBR-12909 (vanoxerine) is shown below.
Binding inhibition rate(%)=100−[(binding amount in the presence of test compound−non-specific binding amount)/(total binding amount−non-specific binding amount)]×100

Data set [1] addresses T2, NMDA receptor (NR1 subunit and NR2B subunit) (Mus musculus, UniProt P35438+Q01097).
T2 construct: expressed in transfected cells; host or cells: HEK293 cells, transient transfection with pcDNA3.1 plasmids
Briefly: Measurement of expression of NMDA receptor and Ca ion influx amount (glutamic acid/glycine-induced, HEK293 cell co-expressing NR1 and NR2B subunits, Fluo-3/AM). The class given is cell-based. Here is the method:
Measurement of Expression of NMDA Receptor and Ca Ion Influx Amount
A complementary DNA (cDNA) of a mouse NMDA receptor subunit was transiently introduced into a HEK293 cell and, after 1 day from introduction, change in a glutamic acid/glycine-induced intracelluar Ca amount was measured using a Ca ion reactive fluorescent coloring matter.
The HEK293 cell was cultured, and passaged using a modified Dulbecco's Eagle medium (DMEM, low glucose).
The HEK293 cell (20,000/well) was seeded on a 96-well plate, a NR1 subunit and a NR2B subunit of the NMDA receptor incorporated into the pcDNA3.1 plasmid were transiently introduced into a cell, and the subunits were co-expressed. An introduction amount of a DNA was 0.025 μg in the case of the NR1 subunit, and 0.075 μg in the case of NR2B subunit per well. For the cell after introduction, cell death was inhibited using 50 μM of the NMDA receptor antagonist MK-801.
For adjusting a test compound and washing a cell, Krebs/Ringer/Hepes buffer (KRH, Ca: 5 mM) was used.
After 1 day from introduction, the NMDA receptor antagonist MK-801 was washed out using the KRH buffer, and a Ca ion indication fluorescent coloring matter Fluo-3/AM was made to be taken into the cell. Ca ion influx was induced with 20 μM glutamic acid/2 μM glycine. Change in a fluorescent amount due to Ca ion influx into the cell was measured at excitation of 480 nm using a fluorescent imaging system FDSS 3000.
From a measured value of the test compound, a Ca ion influx inhibition rate (%) was obtained by the following equation, and a dose at which influx is inhibited 50% (IC50) was calculated.
Ca ion influx inhibition rate(%)=100−[(fluorescent amount in the presence of test compound−background fluorescent amount)/(total fluorescent amount−background fluorescent)]×100

Setting [2] is: [3H]-Ifenprodil 5 nM, GBR-12909 3 μM, rat cerebral cortex membranes, ice temperature 120 minutes, read-out: NR2B (IC50 μM).
[3] abbreviates: Ca ion influx induced with 20 μM glutamic acid/2 μM glycine, HEK293 cell with mouse NR1/NR2B, read-out: Ca2+ IC50.
Setting [4] is: same binding test, read-out: IC50 (binding with NR1/NR2B receptor).
Where [5] appears, read: same Ca ion influx test, read-out: IC50 (Ca ion influx inhibition).

Read-outs that look alike come from different tables or passages of the source.

T1 sequence (Q00960 27-1482, other chains not shown): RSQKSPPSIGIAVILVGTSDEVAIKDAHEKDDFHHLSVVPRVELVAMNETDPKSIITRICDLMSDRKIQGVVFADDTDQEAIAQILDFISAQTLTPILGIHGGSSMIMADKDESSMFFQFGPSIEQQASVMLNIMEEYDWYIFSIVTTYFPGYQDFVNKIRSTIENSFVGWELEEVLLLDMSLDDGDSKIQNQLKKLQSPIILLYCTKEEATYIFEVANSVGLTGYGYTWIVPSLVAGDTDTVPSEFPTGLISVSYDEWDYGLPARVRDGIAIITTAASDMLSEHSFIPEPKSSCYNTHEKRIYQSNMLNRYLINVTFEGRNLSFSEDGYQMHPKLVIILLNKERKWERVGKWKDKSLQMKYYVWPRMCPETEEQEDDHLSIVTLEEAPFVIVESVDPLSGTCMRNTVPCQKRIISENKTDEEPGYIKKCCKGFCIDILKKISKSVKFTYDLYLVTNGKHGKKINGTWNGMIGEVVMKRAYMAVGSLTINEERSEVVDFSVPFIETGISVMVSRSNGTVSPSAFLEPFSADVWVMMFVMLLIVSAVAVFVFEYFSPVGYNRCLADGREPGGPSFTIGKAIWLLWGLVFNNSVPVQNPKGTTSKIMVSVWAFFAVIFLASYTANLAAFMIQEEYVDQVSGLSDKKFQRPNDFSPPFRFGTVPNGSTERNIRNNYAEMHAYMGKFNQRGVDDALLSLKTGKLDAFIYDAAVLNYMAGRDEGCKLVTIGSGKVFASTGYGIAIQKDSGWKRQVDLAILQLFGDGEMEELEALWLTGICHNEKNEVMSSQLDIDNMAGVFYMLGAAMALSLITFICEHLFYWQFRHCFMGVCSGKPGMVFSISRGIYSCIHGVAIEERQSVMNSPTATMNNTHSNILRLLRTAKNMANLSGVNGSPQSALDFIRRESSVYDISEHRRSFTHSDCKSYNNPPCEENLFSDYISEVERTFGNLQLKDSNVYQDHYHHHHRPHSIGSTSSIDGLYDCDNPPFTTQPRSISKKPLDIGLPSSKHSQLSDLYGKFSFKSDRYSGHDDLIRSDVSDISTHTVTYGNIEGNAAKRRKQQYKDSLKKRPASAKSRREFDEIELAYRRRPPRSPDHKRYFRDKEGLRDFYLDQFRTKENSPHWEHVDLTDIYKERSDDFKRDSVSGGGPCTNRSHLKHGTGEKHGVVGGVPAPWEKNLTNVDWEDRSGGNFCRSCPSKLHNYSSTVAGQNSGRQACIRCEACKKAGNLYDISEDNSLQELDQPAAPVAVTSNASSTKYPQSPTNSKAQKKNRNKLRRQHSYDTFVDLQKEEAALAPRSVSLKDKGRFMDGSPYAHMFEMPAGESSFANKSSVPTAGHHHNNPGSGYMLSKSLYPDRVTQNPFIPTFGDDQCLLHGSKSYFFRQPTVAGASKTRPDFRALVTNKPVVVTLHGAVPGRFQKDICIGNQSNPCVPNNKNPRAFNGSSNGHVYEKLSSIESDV
T2 sequence (Q01097 27-1482, other chains not shown): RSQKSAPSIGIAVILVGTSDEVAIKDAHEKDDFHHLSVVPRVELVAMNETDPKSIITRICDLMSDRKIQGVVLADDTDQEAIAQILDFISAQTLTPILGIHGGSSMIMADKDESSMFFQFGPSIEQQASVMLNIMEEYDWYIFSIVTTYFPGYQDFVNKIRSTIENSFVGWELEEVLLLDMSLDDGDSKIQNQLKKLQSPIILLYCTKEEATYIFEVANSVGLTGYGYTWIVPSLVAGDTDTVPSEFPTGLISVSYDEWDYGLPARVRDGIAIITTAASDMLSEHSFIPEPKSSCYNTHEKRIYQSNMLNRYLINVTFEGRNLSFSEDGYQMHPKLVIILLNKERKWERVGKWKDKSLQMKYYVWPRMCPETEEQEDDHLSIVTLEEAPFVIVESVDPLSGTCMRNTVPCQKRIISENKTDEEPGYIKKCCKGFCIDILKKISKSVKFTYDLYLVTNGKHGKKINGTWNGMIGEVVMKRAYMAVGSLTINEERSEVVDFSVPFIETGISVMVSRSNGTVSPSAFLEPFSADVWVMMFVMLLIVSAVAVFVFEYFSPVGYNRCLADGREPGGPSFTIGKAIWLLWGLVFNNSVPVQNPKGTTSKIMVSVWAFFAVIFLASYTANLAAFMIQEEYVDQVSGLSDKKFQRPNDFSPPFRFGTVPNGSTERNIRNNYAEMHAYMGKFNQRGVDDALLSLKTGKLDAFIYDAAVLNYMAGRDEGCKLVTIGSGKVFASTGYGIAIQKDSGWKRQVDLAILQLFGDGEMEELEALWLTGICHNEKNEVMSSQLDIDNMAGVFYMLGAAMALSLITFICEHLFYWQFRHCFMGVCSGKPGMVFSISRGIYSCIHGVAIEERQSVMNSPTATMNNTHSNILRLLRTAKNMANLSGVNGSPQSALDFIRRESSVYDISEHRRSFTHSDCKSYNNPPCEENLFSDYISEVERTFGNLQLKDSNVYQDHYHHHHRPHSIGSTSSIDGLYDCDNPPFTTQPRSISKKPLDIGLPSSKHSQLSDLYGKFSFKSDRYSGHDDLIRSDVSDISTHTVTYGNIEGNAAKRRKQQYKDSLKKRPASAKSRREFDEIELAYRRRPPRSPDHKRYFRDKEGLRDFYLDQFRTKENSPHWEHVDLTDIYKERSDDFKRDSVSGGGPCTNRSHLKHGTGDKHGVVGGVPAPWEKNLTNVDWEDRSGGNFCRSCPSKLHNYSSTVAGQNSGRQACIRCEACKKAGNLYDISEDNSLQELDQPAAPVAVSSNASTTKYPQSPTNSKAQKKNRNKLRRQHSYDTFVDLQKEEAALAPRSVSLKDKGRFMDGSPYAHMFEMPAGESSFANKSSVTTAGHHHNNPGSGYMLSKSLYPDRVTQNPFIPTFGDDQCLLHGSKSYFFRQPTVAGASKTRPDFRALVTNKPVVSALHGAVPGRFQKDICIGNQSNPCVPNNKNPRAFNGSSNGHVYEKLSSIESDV

The term melting point denotes the temperature of the solid-liquid transition. As for `O=C(NCCC1CCN(c2ccc(Cl)cc2)CC1)c1ccc(=O)[nH]c1` [Compound I-1], the melting point lay within 232 to 234 °C. Besides, the IC50 on NR1/NR2B receptor (setting [2]) is 0.043 µM.
In the case of `O=C(NCCC1CCN(c2ccc(C(F)(F)F)cc2)CC1)c1ccc(=O)[nH]c1` [Compound I-2], the melting point is 232 to 233 °C (dec.). For the same molecule, the IC50 on NR1/NR2B receptor (setting [2]) was found to be 0.033 µM. In data set [1] (setting [3]), the IC50 is 0.014 µM.
Take `O=C(NCCC1CCN(c2ccc(Br)cc2)CC1)c1ccc(=O)[nH]c1` [Compound I-5]: the melting point was 236 to 238 °C (dec.). Also, the IC50 at NR1/NR2B receptor (setting [2]) is 0.043 µM. Also, the IC50 in data set [1] (setting [3]) was determined as 0.02 µM.
Molecule `O=C(NCCC1CCN(c2ccc(C(F)(F)F)cn2)CC1)c1ccc(=O)[nH]c1` [Compound I-6] yielded a melting point of 232 to 234 °C. In addition, the IC50 in data set [1] (setting [3]) is 0.039 µM.
Take `O=C(CC1(O)CCN(c2ccc(C(F)(F)F)cn2)CC1)Nc1ccc2[nH]c(=O)oc2c1` [Compound I-61]: the melting point lay within 218 to 219 °C. The IC50 in data set [1] (setting [3]) was determined as 0.037 µM.
Take `O=C(CC1CCN(c2ccc(C(F)(F)F)cn2)CC1)Nc1ccc2[nH]c(=O)oc2c1` [Compound I-62]: the melting point is 229 to 230 °C. In addition, the IC50 in data set [1] (setting [3]) came to 0.092 µM.
The molecule `O=C(CC1=CCN(c2ccc(C(F)(F)F)cn2)CC1)Nc1ccc2[nH]c(=O)oc2c1` [Compound I-63] registered a melting point of 236 to 237 °C. Also, in data set [1] (setting [3]), the IC50 was determined as 0.079 µM.
Molecule `O=C(CC1(O)CCN(c2ccc(C(F)(F)F)cc2)CC1)Nc1ccc2c(c1)CC(=O)N2` [Compound I-65] showed a melting point of 260 to 261 °C.
Consider `O=C(C=C1CCN(c2ccc(C(F)(F)F)cn2)CC1)Nc1ccc2[nH]c(=O)sc2c1` [Compound I-66], for which the melting point was in the range of 219 to 220 °C. Moreover, on NR1/NR2B receptor (setting [2]), the IC50 turned out to be 0.09 µM. Besides, in data set [1] (setting [3]), the IC50 was determined as 0.025 µM.
Regarding `O=C(NCCC1(O)CCN(c2ccc(C(F)(F)F)cn2)CC1)c1cn[nH]c1` [Compound I-67], the melting point fell in the range of 199 to 200 °C.
On the same count and under the same terms, then `CC(=O)c1ccc(N2CCN(C(=O)C(=O)Nc3ccc4[nH]c(=O)oc4c3)CC2)cc1` [Compound I-203], with 264 to 266 °C (dec.).
For the molecule `O=C(Nc1ccc2[nH]c(=O)oc2c1)C(=O)N1CCN(c2ccc(Cl)cn2)CC1` [Compound I-204], the melting point was in the range of 241 to 243 °C. Also, the IC50 on NR1/NR2B receptor (setting [4]) was not above 0.1 µM.
The matching figures for `O=C(C=C1CCN(c2ccc(F)c(Cl)c2)CC1)Nc1ccc2[nH]c(=O)oc2c1` [Compound I-205]: 209 to 211 °C and not above 0.1 µM.
The matching figures for `C[C@@H]1CN(C(=O)C(=O)Nc2ccc3[nH]c(=O)oc3c2)CCN1c1ccc(F)c(Cl)c1` [Compound I-206]: 107 to 108 °C and not above 0.1 µM.
In turn, `O=C(NCCC1CCN(c2ccc(Cl)c(F)c2)CC1)c1ccc(=O)[nH]c1` [Compound I-208] showed a melting point of 230 to 232 °C. For the same molecule, the IC50 at NR1/NR2B receptor (setting [4]) is not above 0.1 µM. Further, the IC50 in data set [1] (setting [5]) was not above 0.1 µM.
The molecule `C[C@@H]1CN(C(=O)C(=O)Nc2ccc3[nH]c(=O)oc3c2)CCN1c1ccc(C(F)(F)F)cn1` [Compound I-209] showed a melting point of 197 to 198 °C. For the same molecule, the IC50 on NR1/NR2B receptor (setting [4]) was not above 0.1 µM. Besides, the IC50 in data set [1] (setting [5]) is not above 0.1 µM.
The molecule `COc1ccc(N2CCN(C(=O)C(=O)Nc3ccc4[nH]c(=O)oc4c3)CC2)cc1Cl` [Compound I-247] had a melting point of 224 to 226 °C. Moreover, the IC50 on NR1/NR2B receptor (setting [4]) is not above 0.1 µM.
`COc1ccc(N2CCN(C(=O)C(=O)Nc3ccc4[nH]c(=O)oc4c3)C[C@H]2C)cc1Cl` [Compound I-248]: the melting point was 118 to 120 °C.
In turn, `COc1ccc(N2CCN(C(=O)C(=O)Nc3ccc4[nH]c(=O)oc4c3)[C@H](C)C2)cc1Cl` [Compound I-249] showed a melting point of 123 to 125 °C. On NR1/NR2B receptor (setting [4]), the IC50 was not above 0.1 µM. Also, the IC50 in data set [1] (setting [5]) was not above 0.1 µM.
`COc1cc(N2CCN(C(=O)C(=O)Nc3ccc4[nH]c(=O)oc4c3)CC2)ccc1Cl` [Compound I-250] gave a melting point of 201 to 203 °C.
The same measure, in the same setting: then `COc1cc(N2CCN(C(=O)C(=O)Nc3ccc4[nH]c(=O)oc4c3)C[C@H]2C)ccc1Cl` [Compound I-251], with 122 to 124 °C; and `CCOc1ccc(N2CCN(C(=O)C(=O)Nc3ccc4[nH]c(=O)oc4c3)CC2)cc1F` [Compound I-253], with 226 to 228 °C.

Values taken from patent publication US7935706B2, “Nitrogen-containing heterocycle derivatives substituted with cyclic group” (Shionogi & Co., Ltd., priority 2006, dated 2011).
